We go through three molecules from paper PMC4672351, “Drug-Drug Interaction Potentials of Tyrosine Kinase Inhibitors via Inhibition of UDP-Glucuronosyltransferases” (Scientific Reports, 2015).

Molecules are shown by their SMILES. Where “and” joins values, the source holds several entries; their conditions need not be identical. Identical values can stand only once.

For one data set, the target named is T1, UGT1A9 (Homo sapiens, UniProt O60656).
T1 sequence (O60656 26-530): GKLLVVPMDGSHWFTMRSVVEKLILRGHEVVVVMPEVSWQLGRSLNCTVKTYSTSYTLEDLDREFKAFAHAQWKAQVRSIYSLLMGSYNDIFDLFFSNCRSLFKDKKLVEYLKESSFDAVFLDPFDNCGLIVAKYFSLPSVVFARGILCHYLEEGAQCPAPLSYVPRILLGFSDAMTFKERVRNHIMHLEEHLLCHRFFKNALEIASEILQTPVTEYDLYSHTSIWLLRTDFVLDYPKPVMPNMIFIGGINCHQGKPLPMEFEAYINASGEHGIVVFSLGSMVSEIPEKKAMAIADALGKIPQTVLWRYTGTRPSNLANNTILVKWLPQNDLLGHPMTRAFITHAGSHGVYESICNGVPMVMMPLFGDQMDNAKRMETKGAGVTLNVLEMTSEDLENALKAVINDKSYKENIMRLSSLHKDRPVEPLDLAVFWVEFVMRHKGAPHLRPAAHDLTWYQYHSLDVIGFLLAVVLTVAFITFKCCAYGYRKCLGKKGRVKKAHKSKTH
The conditions noted are these: 4-MU substrate.

Data set [1] concerns the target T2, UGT1A1 (Homo sapiens, UniProt P22309).
T2 sequence (P22309 26-533): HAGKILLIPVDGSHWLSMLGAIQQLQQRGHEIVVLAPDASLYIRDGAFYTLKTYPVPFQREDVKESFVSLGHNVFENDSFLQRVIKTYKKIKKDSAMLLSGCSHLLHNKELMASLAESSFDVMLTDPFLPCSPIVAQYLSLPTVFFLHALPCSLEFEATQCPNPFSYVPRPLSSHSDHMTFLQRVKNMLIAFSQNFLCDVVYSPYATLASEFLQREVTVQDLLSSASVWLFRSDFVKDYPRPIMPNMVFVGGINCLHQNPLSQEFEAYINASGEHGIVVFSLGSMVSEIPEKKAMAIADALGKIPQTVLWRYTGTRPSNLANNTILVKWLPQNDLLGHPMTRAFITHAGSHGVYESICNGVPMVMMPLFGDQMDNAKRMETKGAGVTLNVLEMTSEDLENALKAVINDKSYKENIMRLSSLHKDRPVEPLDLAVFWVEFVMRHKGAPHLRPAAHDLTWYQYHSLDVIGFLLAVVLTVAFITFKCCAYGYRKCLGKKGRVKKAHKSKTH
As to conditions: SN-38 substrate.
Method: SN-38 glucuronidation activity was determined with a slight modification of a previously published method[13].

Data set [2] has as its target T2, UGT1A1. As to conditions: fm is 1; clinical doses.
The conditions of data set [3]: clinical study; ref [16]; cited from earlier work.
A further data set has as its target T3, UGT1A4 (Homo sapiens, UniProt P22310).
T3 sequence (P22310 29-534): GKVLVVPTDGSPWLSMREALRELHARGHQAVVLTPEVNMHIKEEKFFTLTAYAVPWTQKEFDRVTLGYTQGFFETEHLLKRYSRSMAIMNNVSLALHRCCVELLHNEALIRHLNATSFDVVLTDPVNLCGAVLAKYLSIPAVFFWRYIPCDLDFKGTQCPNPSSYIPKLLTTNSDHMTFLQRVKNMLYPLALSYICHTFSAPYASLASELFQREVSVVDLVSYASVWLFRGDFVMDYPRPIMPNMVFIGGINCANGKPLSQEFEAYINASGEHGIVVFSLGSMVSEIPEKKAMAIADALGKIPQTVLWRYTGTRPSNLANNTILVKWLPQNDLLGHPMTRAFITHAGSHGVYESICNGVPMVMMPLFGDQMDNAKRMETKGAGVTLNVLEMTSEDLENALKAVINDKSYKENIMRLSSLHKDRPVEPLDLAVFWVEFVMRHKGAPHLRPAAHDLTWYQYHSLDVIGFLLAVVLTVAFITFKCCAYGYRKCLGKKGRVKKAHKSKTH
Nature of the data set: Prediction of DDI risk (AUCi/AUC) from in vitro data, UGT1A4 substrates. Also noted: purchased BD Gentest (Woburn, MA); host or cells: baculovirus-infected insect cells. As to conditions: fm is 1. The method, then: The ratio was calculated based on the eq.

For the molecule `COc1cc2c(Nc3ccc(Br)cc3F)ncnc2cc1OCC1CCN(C)CC1` [Vandetanib, vandetanib], the “inhibition type, UGT1A9” value against UGT1A9 is “mixed”.
Regarding `CS(=O)(=O)CCNCc1ccc(-c2ccc3ncnc(Nc4ccc(OCc5cccc(F)c5)c(Cl)c4)c3c2)o1` [Lapatinib, lapatinib], on UGT1A1 [1], the “inhibition type, UGT1A1” value is listed as “non-competitive”. The “Predicted increase in AUC of UGT1A1 substrates (4-MU and SN-38)” value at UGT1A1 [2] is listed as ~ 25%. Further, the “Increase in the AUC of SN-38 on co-administration with irinotecan” value in data set [3] was 41% and ~ 40%.
Regarding `CNC(=O)c1ccccc1Sc1ccc2c(/C=C/c3ccccn3)n[nH]c2c1` [Axitinib, axitinib], on UGT1A4, the “Predicted AUCi/AUC ratio of UGT1A4 substrates” value is reported as approximately 1.
